This note sets out measurements from patent US20190375708A1 (VenatoRx Pharmaceuticals, Inc., priority 2018, published 2019).

Data set [1] relates to HBV replication in HepAD38 cells. Briefly: Anti-HBV replication assay in HepAD38 cells (QPCR of extracellular HBV DNA). It is filed as cell-based, HBV (genotype D, serotype ayw). The settings on record: Hepatitis B virus, 168 h, 7 days incubation, extracellular HBV DNA by QPCR, read-out: Anti-HBV EC50. The method, boiled down: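 HepAD38 cells (HepG2 carrying a tet-repressible HBV genotype D genome) were seeded in tetracycline-free medium and treated next day with compound […] for 7 days. Supernatant HBV DNA was measured by QPCR against a standard curve; EC50 came from 4-parameter fits of inhibition versus DMSO control.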

A short description of data set [2]: In vitro cytotoxicity assay (MTT cell viability) in HepG2 cells. The format is cell-based, human. Conditions: human. The method, boiled down: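 HepG2 cells incubated 7 days at 37 °C, 5% CO2 with compounds from 30 μM to 1.0 nM (8 half-log dilutions). Viability read as MTT formazan absorbance at 492 nm, normalised to vehicle controls; CC50 from 4-parameter non-linear regression.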

As a reminder, the EC50 is the concentration that produces a half-maximal response. The term CC50 denotes the concentration that lowers cell viability or growth by half. Lower therefore signals harm at low concentration. Turning to `Cc1cc(NC(=O)c2c(C)c(C(=O)C(=O)NC3CCNC(=O)C3)n(C)c2C)ccc1F` (centres unmarked) [Example 286, N-(4-fluoro-3-methylphenyl)-1,2,4-trimethyl-5-(2-oxo-2-((2-oxopiperidin-4-yl)amino)acetyl)-1H-pyrrole-3-carboxamide], in data set [1], the EC50 was below 50 nM. Besides, the CC50 at 7 days in data set [2] is above 30000 nM.

For `Cc1cc(NC(=O)c2c(C)c(C(=O)C(=O)N[C@H]3CCC[C@H](O)C3)n(C)c2C)ccc1F` [Example 618, N-(4-fluoro-3-methylphenyl)-5-(2-(((1S,3S)-3-hydroxycyclohexyl)amino)-2-oxoacetyl)-1,2,4-trimethyl-1H-pyrrole-3-carboxamide], in data set [1], the EC50 was below 50 nM. This compound also displayed a CC50 at 7 days in data set [2] above 30000 nM.

`Cc1c(C(=O)Nc2nccs2)c2n(c1C(=O)C(=O)NC(C)(C)CO)CCCC2` [Example 759, 3-(2-((1-hydroxy-2-methylpropan-2-yl)amino)-2-oxoacetyl)-2-methyl-N-(thiazol-2-yl)-5,6,7,8-tetrahydroindolizine-1-carboxamide]: the EC50 in data set [1] is 50 to 499 nM. In data set [2], the CC50 at 7 days is above 30000 nM.

Take `Cc1cc(Cl)cc(NC(=O)c2c(C)c(C(=O)C(=O)N[C@]3(C)CC[C@@H](O)CC3)n(C)c2C)c1` [Example 687, N-(3-chloro-5-methylphenyl)-5-(2-(((1r,4r)-4-hydroxy-1-metthylcyclohexyl)amino)-2-oxoacetyl)-1,2,4-trimethyl-1H-pyrrole-3-carboxamide]: the EC50 in data set [1] was below 50 nM. Also, the CC50 at 7 days in data set [2] was in the range of 5000 to 30000 nM.

Consider `Cc1c(C(=O)Nc2cc(F)c(F)c(F)c2)c(C)n(C)c1C(=O)C(=O)Nc1ccc(F)cn1` [Example 319, 5-(2-((5-fluoropyridin-2-yl)amino)-2-oxoacetyl)-1,2,4-trimethyl-N-(3,4,5-trifluorophenyl)-1H-pyrrole-3-carboxamide], for which, in data set [1], the EC50 was below 50 nM. The CC50 at 7 days in data set [2] lay in the range of 5000 to 30000 nM.

Regarding `CC(=O)N1CCC(NC(=O)C(=O)c2c(C)c(C(=O)Nc3ccc(F)c(C)c3)c(C)n2C)CC1` [Example 354, 5-(2-((1-acetylpiperidin-4-yl)amino)-2-oxoacetyl)-N-(4-fluoro-3-methylphenyl)-1,2,4-trimethyl-1H-pyrrole-3-carboxamide], in data set [1], the EC50 is below 50 nM. This compound yielded a CC50 at 7 days in data set [2] above 30000 nM.

On to `Cc1c(C(=O)Nc2ccc(F)nc2)c(C)n(C)c1C(=O)C(=O)NC(C)C(F)(F)F` (centres unmarked) [Example 119, N-(6-fluoropyridin-3-yl)-1,2,4-trimethyl-5-(2-oxo-2-((1,1,1-trifluoropropan-2-yl)amino)acetyl)-1H-pyrrole-3-carboxamide], for which the EC50 in data set [1] is below 50 nM. Besides, the CC50 at 7 days in data set [2] is above 30000 nM.

For the compound `Cc1c(C(=O)Nc2cccc(Cl)c2)c(C)n(C)c1C(=O)C(=O)N[C@H]1CC[C@@H](O)CC1` [Example 602, N-(3-chlorophenyl)-5-(2-(((1s,4s)-4-hydroxycyclohexyl)amino)-2-oxoacetyl)-1,2,4-trimethyl-1H-pyrrole-3-carboxamide], the EC50 in data set [1] is below 50 nM. This compound registered a CC50 at 7 days in data set [2] above 30000 nM.

`Cc1c(C(=O)Nc2ccnc(Cl)c2)c(C)n(C)c1C(=O)C(=O)NC1(C(F)(F)F)CCOCC1` [Example 253, N-(2-chloropyridin-4-yl)-1,2,4-trimethyl-5-(2-oxo-2-((4-(trifluoromethyl)tetrahydro-2H-pyran-4-yl)amino)acetyl)-1H-pyrrole-3-carboxamide]: in data set [1], the EC50 is below 50 nM. This compound also registered a CC50 at 7 days in data set [2] above 30000 nM.

For `Cc1cc(NC(=O)c2c(C)c(C(=O)C(=O)NOC(C)(C)CO)n(C)c2C)ccc1F` [Example 156, N-(4-fluoro-3-methylphenyl)-5-(2-(((1-hydroxy-2-methylpropan-2-yl)oxy)amino)-2-oxoacetyl)-1,2,4-trimethyl-1H-pyrrole-3-carboxamide], in data set [1], the EC50 was below 50 nM. Further, the CC50 at 7 days in data set [2] is above 30000 nM.

Turning to `Cc1cc(NC(=O)c2c(C)c(C(=O)C(=O)N[C@H](C)C(C)(C)C)n(C)c2C)ccc1F` [Example 63, (R)-5-(2-((3,3-dimethylbutan-2-yl)amino)-2-oxoacetyl)-N-(4-fluoro-3-methylphenyl)-1,2,4-trimethyl-1H-pyrrole-3-carboxamide], the EC50 in data set [1] was below 50 nM. Besides, in data set [2], the CC50 at 7 days is above 30000 nM.

On to `Cc1cc(NC(=O)c2c(C)c(C(=O)C(=O)N[C@@H]3CCNC3=O)n(C)c2C)ccc1F` [Example 672, (R)-N-(4-fluoro-3-methylphenyl)-1,2,4-trimethyl-5-(2-oxo-2-((2-oxopyrrolidin-3-yl)amino)acetyl)-1H-pyrole-3-carboxamide], for which the EC50 in data set [1] was below 50 nM. In addition, the CC50 at 7 days in data set [2] was above 30000 nM.

With `Cc1cc(NC(=O)c2c(C)c(C(=O)C(=O)NCCN3C(=O)CSC3=O)n(C)c2C)ccc1F` [Example 649, 5-(2-((2-(2,4-dioxothiazolidin-3-yl)ethyl)amino)-2-oxoacetyl)-N-(4-fluoro-3-methylphenyl)-1,2,4-trimethyl-1H-pyrrole-3-carboxamide], the EC50 in data set [1] is below 50 nM. The same compound had a CC50 at 7 days in data set [2] above 30000 nM.

Turning to `CO[C@H]1CC[C@H](NC(=O)C(=O)c2c(C)c(C(=O)Nc3ccc(F)c(C)c3)c(C)n2C)CC1` [Example 269, N-(4-fluoro-3-methylphenyl)-5-(2-(((1r,4r)-4-methoxycyclohexyl)amino)-2-oxoacetyl)-1,2,4-trimethyl-1H-pyrrole-3-carboxamide], the EC50 in data set [1] is below 50 nM. In data set [2], the CC50 at 7 days was in the range of 5000 to 30000 nM.

For `Cc1c(C(=O)Nc2ccnc(F)c2)c(C)n(C)c1C(=O)C(=O)NC(C)(C)C(F)(F)F` [Example 172, N-(2-fluoropyridin-4-yl)-1,2,4-trimethyl-5-(2-oxo-2-((1,1,1-trifluoro-2-methylpropan-2-yl)amino)acetyl)-1H-pyrrole-3-carboxamide], in data set [1], the EC50 was below 50 nM. For the same compound, the CC50 at 7 days in data set [2] is above 30000 nM.

Consider `Cc1cc(NC(=O)c2c(C)c(C(=O)C(=O)NC3(c4nnn[nH]4)CCCC3)n(C)c2C)ccc1F` [Example 636, 5-(2-((1-(1H-tetrazol-5-yl)cyclopentyl)amino)-2-oxoacetyl)-N-(4-fluoro-3-methylphenyl)-1,2,4-trimethyl-1H-pyrrole-3-carboxamide], for which the EC50 in data set [1] was below 50 nM. The same compound displayed a CC50 at 7 days in data set [2] above 30000 nM.

`Cc1cc(NC(=O)c2c(Cl)c(C(=O)C(=O)N[C@H](C)C(F)(F)F)n3c2CCCC3)cnc1F` [Example 732]: the EC50 in data set [1] was 50 to 499 nM. The compound also came in with a CC50 at 7 days in data set [2] above 30000 nM.

As for `Cc1cc(NC(=O)c2c(C)c(C(=O)C(=O)NC(C)(C)C(N)=O)n(CCO)c2C)ccc1F` [Example 72, 5-(2-((1-amino-2-methyl-1-oxopropan-2-yl)amino)-2-oxoacetyl)-N-(4-fluoro-3-methylphenyl)-1-(2-hydroxyethyl)-2,4-dimethyl-1H-pyrrole-3-carboxamide], the EC50 in data set [1] was above 1000 nM. The compound also returned a CC50 at 7 days in data set [2] above 30000 nM.

Take `Cc1cc(NC(=O)c2c(C)c(C(=O)C(=O)N[C@@H]3CCC[C@@H](O)C3)n(C)c2C)ccc1F` [Example 287, N-(4-fluoro-3-methylphenyl)-5-(2-(((1R,3R)-3-hydroxycyclohexyl)amino)-2-oxoacetyl)-1,2,4-trimethyl-1H-pyrrole-3-carboxamide]: the EC50 in data set [1] was below 50 nM. Besides, in data set [2], the CC50 at 7 days was above 30000 nM.

Consider `COc1c(C(=O)Nc2ccc(F)c(F)c2)c(C)n(C)c1C(=O)C(=O)NC1(C(F)(F)F)CC1` [Example 377, N-(3,4-difluorophenyl)-4-methoxy-1,2-dimethyl-5-(2-oxo-2-((1-(trifluoromethyl)cyclopropyl)amino)acetyl)-1H-pyrrole-3-carboxamide], for which the EC50 in data set [1] was below 50 nM. Also, in data set [2], the CC50 at 7 days was above 30000 nM.

Regarding `COCC(C)(C)NC(=O)C(=O)c1c(C)c(C(=O)Nc2ccc(F)nc2)c(C)n1C` [Example 168, N-(6-fluoropyridin-3-yl)-5-(2-((1-methoxy-2-methylpropan-2-yl)amino)-2-oxoacetyl)-1,2,4-trimethyl-1H-pyrrole-3-carboxamide], the EC50 in data set [1] was in the range of 50 to 499 nM. This compound also gave a CC50 at 7 days in data set [2] above 30000 nM.

Regarding `Cc1c(C(=O)Nc2ccnc(Cl)c2)c(C)n(C)c1C(=O)C(=O)N[C@H](C)C(F)(F)F` [Example 208, (R)-N-(2-chloropyridin-4-yl)-1,2,4-trimethyl-5-(2-oxo-2-((1,1,1-trifluoropropan-2-yl)amino)acetyl)-1H-pyrrole-3-carboxamide], in data set [1], the EC50 is below 50 nM. In data set [2], this compound registered a CC50 at 7 days above 30000 nM.

Take `Cc1c(C(=O)Nc2ccc(F)c(F)c2)c(C)n(C)c1C(=O)C(=O)Nc1ccc(F)c(F)c1` [Example 293, N-(3,4-difluorophenyl)-5-(2-((3,4-difluorophenyl)amino)-2-oxoacetyl)-1,2,4-trimethyl-1H-pyrrole-3-carboxamide]: the EC50 in data set [1] was below 50 nM. In data set [2], this compound had a CC50 at 7 days of 5000 to 30000 nM.

Take `COc1c(C(=O)Nc2ccc(F)c(F)c2)c(C)n(C)c1C(=O)C(=O)NC1(C)CC(F)(F)C1` [Example 379, 5-(2-((3,3-difluoro-1-methylcyclobutyl)amino)-2-oxoacetyl)-N-(3,4-difluorophenyl)-4-methoxy-1,2-dimethyl-1H-pyrrole-3-carboxamide]: the EC50 in data set [1] fell in the range of 50 to 499 nM. The CC50 at 7 days in data set [2] is above 30000 nM.

Turning to `Cc1cc(NC(=O)c2c(Cl)c(C(=O)C(=O)NCC(C)(C)CO)n3c2CCC3)ccc1F` [Example 549, 6-chloro-N-(4-fluoro-3-methylphenyl)-5-(2-((3-hydroxy-2,2-dimethylpropyl)amino)-2-oxoacetyl)-2,3-dihydro-1H-pyrrolizine-7-carboxamide], the EC50 in data set [1] lay within 500 to 1000 nM. In data set [2], this compound registered a CC50 at 7 days above 30000 nM.
